Test results from US7320785B2, “Compositions and methods for modulation of DARPP-32 phosphorylation” (The Rockefeller University, priority 2001, dated 2008).
Read-outs that look alike come from different tables or passages of the source. Marks after values point to notes of the source that are not given here.

Tests used:
[1] = test system: WT and DARPP-32 KO mice; assay: Locomotor activity measurements in activity monitors; format: in vivo, mouse
Method: Locomotor activity of WT and DARPP-32 KO mice was measured in activity monitors (43×44×45 cm) equipped with both horizontal and vertical sensors (Opto-Varimex, Columbus Instruments, Columbus, Ohio). Mice were acclimated to the boxes for 1 h, […] before the day of the experiment. The day of the experiment, mice were placed in the boxes for 20 min (habituation period) before drug administration. […] Locomotor activity parameters (distance traveled and stereotypic movements) were quantified by using the AutoTrack System (Columbus Instruments).

[2] = test system: c-fos mRNA; assay: c-fos mRNA expression by in situ hybridization in WT and DARPP-32 KO mice; format: in vivo, mouse; conditions: 20 min postinjection
Method: Twenty minutes after the injections, the animals were killed by decapitation and their brains frozen at −80° C. Coronal sections were then made and processed for in situ hybridization experiments with a probe against c-fos mRNA. The expression of c-fos mRNA is widely used as a marker for the biochemical activity of neurons. Manipulations of the serotonergic system, by PCA (4 mg/kg) and 5-HTP (50 mg/kg+carbidopa 50 mg/kg), increased c-fos mRNA expression in several brain regions, including prefrontal cortex and striatum in DARPP-32 wild-type mice.

[3] = test system: DARPP-32; assay: DARPP-32 phosphorylation in vivo in mice after i.p. injection, immunoblotting; design: species or system mouse; conditions: for phospho-Thr75 DARPP-32 / phospho-Thr34 DARPP-32: prefrontal cortex
[4] = test system: inhibitor-1 mRNA; assay: Inhibitor-1 mRNA levels by in situ hybridization after chronic fluoxetine; format: in vivo, mouse; conditions: hippocampus, prefrontal cortex, striatum; fluoxetine 10 mg/kg i.p. once daily for 19 days
Method: (§1) Brains were rapidly dissected out and frozen at −80° C. Cryostat sections (12-μm) were prepared and hybridized with [α-^35S]UTP-labeled riboprobes prepared by in vitro transcription from cDNA clones corresponding to full-length clones of DARPP-32 or inhibitor-1 as described (21). After hybridization, the sections were exposed to Biomax MR film (Kodak) for 2 14 days and analyzed with a Microcomputer Imaging Device system (M4, Imaging Research, St. Catherine's, ON, Canada).

[5] = test system: DARPP-32; assay: Total DARPP-32 protein levels after chronic treatment with fluoxetine; format: in vivo, mouse; conditions: chronic fluoxetine 10 mg/kg i.p., compared with chronic saline
Method: (§2) In all experiments, hippocampi, prefrontal cortices, and striata were rapidly dissected out and stored at −80° C. until assayed.

[6] = test system: DARPP-32; assay: DARPP-32 phosphorylation in mouse brain slices, immunoblotting with phosphorylation state-specific antibodies; conditions: for EC50 / activity at 100 µM: Mus musculus
[7] = test system: DARPP-32 mRNA; assay: DARPP-32 mRNA levels by in situ hybridization after chronic fluoxetine; format: in vivo, mouse; conditions: fluoxetine 10 mg/kg i.p. once daily for 19 days
Method: as §1

[8] = test system: inhibitor-1; assay: Total inhibitor-1 protein levels after chronic treatment with fluoxetine; format: in vivo, mouse; conditions: chronic fluoxetine 10 mg/kg i.p.
Method: as §2

[9] = test system: WT and DARPP-32 KO mice; assay: Tail-suspension test for antidepressant efficacy; format: in vivo, mouse; conditions: fluoxetine 5 or 10 mg/kg i.p. 30 min before the trial
[10] = test system: depressed patients; conditions: several clinical trials; cited from earlier work
[11] = forced-swim test and tail suspension test; cited from earlier work
[12] = test system: GluR1 subunit of the AMPA receptor; assay: Phosphorylation of the GluR1 subunit of the AMPA receptor in slices from WT and DARPP-32 KO mice; format: cell-based, mouse
Method: In order to evaluate the involvement of DARPP-32 in the activity of serotonin, mice that lack DARPP-32 (DARPP-32 knockout (KO) mice) were used. In one set of experiments, striatal slices were prepared from normal mice (DARPP-32 wild-type) and DARPP-32 knockout mice and incubated with serotonin for 5 minutes. Experiments were then carried out to determine the levels of phospho-Ser845 of the GluR1 subunit of the AMPA (AMPA, α-amino-3-hydroxy-5-methyl-4-isoxazolepropionic acid) receptor.

[13] = test system: DARPP-32; assay: Thr34-DARPP-32 phosphorylation in striatal slices from unilaterally 6-OHDA-lesioned rats; format: cell-based, rat
Method: Further experiments were conducted that provide evidence that activation of a serotonergic intracellular signaling pathway and of DARPP-32 has applicability in the treatment of Parkinson's disease. In these experiment, rats were unilaterally (i.e. in one hemisphere) injected with 6-OHDA (6-hydroxydopamine; a dopaminergic neurotoxin) according to standard methods. The 6-OHDA is selectively taken up by dopaminergic neurons and kills the neurons. Such 6-OHDA-lesioned animals are considered an animal model of Parkinson's disease. The 6-OHDA-lesioned animals were sacrificed, striatal slices were prepared, as described hereinabove, from the non-lesioned (i.e., “normal”) and the 6-OHDA-lesioned (i.e., “dopamine-depleted”) hemispheres, and used for striatal slice experiments according to the methods described hereinabove. 5-HT or saline (control) was administered according to the methods described hereinabove. […] The interpretation of these experiments is that 5-HT activates DARPP-32 phosphorylation via a mechanism that is largely independent of enhanced dopaminergic neurotransmission. Agents that enhance serotonergic neurotransmission, and that are stimulatory, can thus exert anti-Parkinsonian effects independent of dopamine, and can be used in the treatment of Parkinson's disease.

[14] = 5-HTP 50 mg/kg + carbidopa 50 mg/kg
[15] = Hippocampus, 5 mg/kg i.p., 15 min
[16] = Hippocampus, 10 mg/kg i.p., 15 min
[17] = Hippocampus, 20 mg/kg i.p., 15 min
[18] = Striatum, 10 mg/kg i.p., 15 min
[19] = Striatum, 20 mg/kg i.p., 15 min
[20] = PCA 4 mg/kg i.p., 15 min, n=5 mice
[21] = striatum, 4 mg/kg i.p., 15 min after injection
[22] = slices from hippocampus, frontal cortex, striatum, WT mice, serotonin 100 μM, 10 min
[23] = striatal slices, serotonin for 5 minutes
[24] = nucleus accumbens slices, serotonin 100 μM, 2 min, n=12

N[C@@H](Cc1c[nH]c2ccc(O)cc12)C(=O)O [5-HTP, 5-hydroxytryptophan]
locomotor activity and stereotypic behavior ([1]; DARPP-32 KO mice, 5-HTP 50 mg/kg i.p. 30 min after carbidopa 50 mg/kg): abolished
locomotor activity and stereotypic behavior ([1]; WT mice, 5-HTP 50 mg/kg i.p. 30 min after carbidopa 50 mg/kg): robust increase
c-fos mRNA Levels in Striatum, DARPP-32 Knockout [2, 14]: 0.092(0.009)#*
c-fos mRNA Levels in Striatum, DARPP-32 Wild-type [2, 14]: 0.195(0.017)*
phospho-Thr75 DARPP-32 ([3]; 5-HTP 50 mg/kg i.p. after carbidopa, 15 min, n=5): 74±8.0%
phospho-Thr34 DARPP-32 ([3]; 5-HTP 50 mg/kg i.p. after carbidopa, 15 min, n=5 mice): 144±8.3%

CNCCC(Oc1ccc(C(F)(F)F)cc1)c1ccccc1 (stereo not shown) [Fluoxetine]
inhibitor-1 mRNA expression [4]: no effects
total DARPP-32 protein ([5]; hippocampus): 121%
total DARPP-32 protein ([5]; prefrontal cortex): 123%
total DARPP-32 protein ([5]; striatum): 102%
locomotion ([1]; fluoxetine at the doses examined (5 or 10 mg/kg)): not significantly affected
effect of fluoxetine alone on DARPP-32 phosphorylation ([6]; slices from hippocampus, prefrontal cortex, striatum, fluoxetine 10 M printed): no effect
DARPP-32 mRNA expression ([7]; hippocampus and frontal cortex): increased
DARPP-32 mRNA expression ([7]; striatum): not in striatum
total inhibitor-1 protein ([8]; hippocampus): 98%
total inhibitor-1 protein ([8]; prefrontal cortex): 102%
total inhibitor-1 protein ([8]; striatum): 97%
Percent Phospho-Thr34 ([3]; Cortex, 5 mg/kg i.p., 15 min): 144(7.4)* Percent
Percent Phospho-Thr75 ([3]; Cortex, 5 mg/kg i.p., 15 min): 86(7.0)* Percent
Percent Phospho-Thr34 ([3]; Cortex, 10 mg/kg i.p., 15 min): 140(4.7)* Percent
Percent Phospho-Thr75 ([3]; Cortex, 10 mg/kg i.p., 15 min): 85(4.2)* Percent
Percent Phospho-Thr75 ([3]; Cortex, 20 mg/kg i.p., 15 min): 82(7.3)* Percent
Percent Phospho-Thr34 [3, 15]: 150(3.8)* Percent
Percent Phospho-Thr75 [3, 15]: 84(6.4)* Percent
Percent Phospho-Thr34 [3, 16]: 142(6.2)* Percent
Percent Phospho-Thr75 [3, 16]: 87(3.0)* Percent
Percent Phospho-Thr34 [3, 17]: 141(11.6)* Percent
Percent Phospho-Thr75 [3, 17]: 88(3.0)* Percent
Percent Phospho-Ser137 ([3]; Striatum, 5 mg/kg i.p., 15 min): 120(8.7) Percent
Percent Phospho-Thr34 ([3]; Striatum, 5 mg/kg i.p., 15 min): 123(5.0)* Percent
Percent Phospho-Thr75 ([3]; Striatum, 5 mg/kg i.p., 15 min): 95(3.1) Percent
Percent Phospho-Ser102 [3, 18]: 108(7.5) Percent
Percent Phospho-Thr34 [3, 18]: 155.2(12.9)* Percent
Percent Phospho-Thr75 [3, 18]: 84.6(8.9)* Percent
Percent Phospho-Thr34 [3, 19]: 141(7.6)* Percent
Percent Phospho-Thr75 [3, 19]: 92(2.1)* Percent
fraction of DARPP-32 phosphorylated at Thr-34, Thr-75, or Ser-137 ([3]; chronic fluoxetine 10 mg/kg 19 days, challenged with saline, versus chronic saline/saline, normalized to total DARPP-32): no differences
ability of a challenge to increase phosphorylation at Ser-137 ([3]; striatum, chronic fluoxetine 10 mg/kg 19 days, challenge 10 mg/kg): abolished
effect on immobility in the tail-suspension test ([9]; DARPP-32 KO mice): strongly attenuated
immobility in the tail-suspension test ([9]; WT mice, 5 min trial): decreased immobility

COc1ccc(C2CNC(=O)C2)cc1OC1CCCC1 (stereo not shown) [rolipram]
anti-depressant efficacy [10]: has anti-depressant efficacy

CC(N)Cc1ccc(Cl)cc1 (stereo not shown) [PCA, para-chloroamphetamine]
locomotor activity and stereotypic behavior ([1]; DARPP-32 KO mice, PCA 4 mg/kg i.p.): abolished
locomotor activity and stereotypic behavior ([1]; WT mice, PCA 4 mg/kg i.p., 50 min): robust increase
c-fos mRNA Levels in Striatum, DARPP-32 Knockout ([2]; PCA 4 mg/kg i.p.): 0.084(0.010)#*
c-fos mRNA Levels in Striatum, DARPP-32 Wild-type ([2]; PCA 4 mg/kg i.p.): 0.181(0.021)*
phospho-Thr34 DARPP-32 [3, 20]: 147±4.8%
phospho-Thr75 DARPP-32 [3, 20]: 79±3.8%
Percent Phospho-Ser137 [3, 21]: 128(7.1)* Percent
Percent Phospho-Thr34 [3, 21]: 171(9.1)* Percent
Percent Phospho-Thr75 [3, 21]: 80.1(3.4)* Percent

CC(CNS(=O)(=O)C(C)C)c1ccc(-c2ccc(C#N)cc2)cc1 (stereo not shown) [LY404187]
antidepressant-like actions [11]: robust antidepressant-like actions

CC(CNS(=O)(=O)C(C)C)c1ccc(-c2ccsc2)cc1 (stereo not shown) [LY392098]
antidepressant-like actions [11]: robust antidepressant-like actions

NCCc1c[nH]c2ccc(O)cc12 [Serotonin]
increased phosphorylation at Ser-845 GluR1, DARPP-32 KO versus WT ([12]; slices from DARPP-32 KO mice, serotonin 100 μM): significantly reduced
phosphorylation at Ser-831 GluR1 [12, 22]: increased
phosphorylation at Ser-845 GluR1 [12, 22]: increased
Ser845-GluR1 Levels, DARPP-32 Knockout [12, 23]: 111(14.9)# percentage of control
Ser845-GluR1 Levels, DARPP-32 Wild-type [12, 23]: 199(22.7)* percentage of control
EC50 ([6]; 2 min, read-out: EC50 for effect on DARPP-32 phosphorylation at Ser137): 37.6 µM
EC50 ([6]; 2 min, read-out: EC50 for effect on DARPP-32 phosphorylation at Thr34): 13.5 µM
activity at 100 µM ([6]; 2 min, read-out: Percent Phospho-Ser137): 141%
activity at 100 µM ([6]; 2 min, read-out: Percent Phospho-Thr34): 342%
EC50 ([6]; 10 min, read-out: EC50 for effect on DARPP-32 phosphorylation at Thr75): 29.6 µM
activity at 100 µM ([6]; 10 min, read-out: Percent Phospho-Thr75): 76%
phosphorylation at Ser137 [6, 24]: 143±7%
phosphorylation at Thr34 [6, 24]: 307±25%
phosphorylation at Thr75 ([6]; nucleus accumbens slices, serotonin, 10 min, n=12): 75±6%
phospho-Thr34 DARPP-32 ([6]; prefrontal cortex slices, 2 min of incubation, n=6): 185±15%
phospho-Thr75 DARPP-32 ([6]; prefrontal cortex slices, 10 min of incubation, n=6): 85±3%
Percent Phospho-Thr34 ([13]; 6-OHDA lesioned hemisphere): 369(67.2)* Percent
Percent Phospho-Thr34 ([13]; Intact hemisphere): 306(50.7) Percent
